# Measurements from ChEMBL document CHEMBL5244272 (Eur J Med Chem, 2021).
# pEC50, pIC50: −log10 of the molar value.
# Experiments:
# Plasmodium falciparum [1] = experiment: Potency index, ratio of artemisinin IC50 to test compound IC50 for Plasmodium falciparum D6; format: functional
# Plasmodium falciparum [2] = experiment: Potency index, ratio of artemisinin IC50 to test compound IC50 for Plasmodium falciparum W2; format: functional
# Plasmodium falciparum [3] = experiment: Antimalarial activity against chloroquine-resistant Plasmodium falciparum K1; format: functional, organism-based
# Plasmodium falciparum [4] = experiment: Antimalarial activity against chloroquine-sensitive Plasmodium falciparum NF54; format: functional, organism-based
# Plasmodium falciparum [5] = experiment: Antimalarial activity against ART-resistant Plasmodium falciparum harboring R539T mutant assessed as increase in survival at 700 nM; format: functional
# Plasmodium falciparum [6] = experiment: Antimalarial activity against chloroquine-sensitive Plasmodium falciparum NF54 infected in po dosed mouse; format: functional
# Plasmodium falciparum [7] = experiment: Antimalarial activity against chloroquine-sensitive Plasmodium falciparum NF54 infected in iv dosed mouse; format: functional
# Plasmodium berghei [8] = experiment: Antimalarial activity against Plasmodium berghei infected in mouse; format: functional; conditions: Plasmodium berghei
# Plasmodium falciparum [9] = experiment: Antimalarial activity against Plasmodium falciparum RKL9; format: functional, organism-based
# Plasmodium berghei [10] = experiment: Antimalarial activity against Plasmodium berghei K173 infected in mouse; format: functional
# Plasmodium falciparum [11] = experiment: Antimalarial activity against Plasmodium falciparum K1; format: functional, organism-based
# Plasmodium falciparum [12] = experiment: Antimalarial activity against Plasmodium falciparum D10; format: functional, organism-based
# Plasmodium falciparum [13] = experiment: Antimalarial activity against Plasmodium falciparum 3D7; format: functional, organism-based
# Plasmodium berghei [14] = experiment: Antimalarial activity against Plasmodium berghei ANKA infected in po dosed mouse; format: functional
# Plasmodium falciparum [15] = experiment: Antimalarial activity against Plasmodium falciparum Dd2; format: functional, organism-based
# Plasmodium falciparum [16] = experiment: Antimalarial activity against Plasmodium falciparum NF54; format: functional, organism-based
# Plasmodium berghei [17] = experiment: Antimalarial activity against Plasmodium berghei infected in po dosed mouse; format: functional
# Plasmodium falciparum [18] = experiment: Antimalarial activity against Plasmodium falciparum W2; format: functional, organism-based
# Plasmodium falciparum [19] = experiment: Antimalarial activity against chloroquine-sensitive Plasmodium falciparum HB3; format: functional, organism-based
# Plasmodium berghei [20] = experiment: Antimalarial activity against Plasmodium berghei infected in sc dosed mouse; format: functional; conditions: Plasmodium berghei
smiles,measurement,setting,value
C[C@@H]1CC[C@H]2[C@@H](C)C(=O)N(/C=C\C#N)[C@@H]3O[C@H]4CC[C@@H]1[C@@]23OO4,Ratio IC50,Plasmodium falciparum [1],2.7
same,Ratio IC50,Plasmodium falciparum [2],1.7
COC(=O)CC[C@@H](C)[C@H]1CC[C@H]2[C@@H]3CC[C@@H]4CC5(CC[C@]4(C)[C@H]3C[C@H](OC(C)=O)[C@]12C)OOC(C)(C(F)(F)F)O5 (stereo partly specified),pIC50,Plasmodium falciparum [3],< 6.64
C[C@H]1[C@H](OC(=O)c2ccc([N+](=O)[O-])cc2)O[C@@H]2O[C@@]3(C)CC[C@H]4[C@H](C)CC[C@@H]1[C@@]24OO3,pIC50,Plasmodium falciparum [4],8.07
N[C@H]1CC[C@@H](Oc2ccc([C@H]3CC[C@]4(CC3)OOC3(O4)C4CC5CC(C4)CC3C5)cc2)CC1 (stereo partly specified),Activity,Plasmodium falciparum [5],<0.01%
COC(=O)/C=C/N1C(=O)[C@H](C)[C@@H]2CC[C@@H](C)[C@@H]3CC[C@]4(C)OO[C@]32[C@H]1O4,Ratio IC50,Plasmodium falciparum [1],2
same,Ratio IC50,Plasmodium falciparum [2],1.2
CC(=O)CN1C(=O)[C@H](C)[C@@H]2CC[C@@H](C)[C@@H]3CC[C@]4(C)OO[C@]32[C@H]1O4,Ratio IC50,Plasmodium falciparum [1],3.2
same,Ratio IC50,Plasmodium falciparum [2],3
C[C@H]1[C@H](CC(C[C@H]2O[C@@H]3O[C@]4(C)CC[C@H]5[C@H](C)CC[C@@H]([C@H]2C)[C@@]35OO4)C(=O)O)O[C@@H]2O[C@]3(C)CC[C@H]4[C@H](C)CC[C@@H]1[C@@]24OO3 (stereo partly specified),ED50,Plasmodium falciparum [6],2 mg/kg
same,ED50,Plasmodium falciparum [7],0.8 mg/kg
same,pEC50,Plasmodium falciparum [4],8.62
C[C@H]1[C@@H](CCOCc2ccccc2F)O[C@@H]2O[C@]3(C)CC[C@H]4[C@H](C)CC[C@@H]1[C@@]24OO3,ED50,Plasmodium berghei [8],5.08 mg/kg
CCN(Cc1cc(C2(C)OOC(c3ccccc3O)OO2)ccc1O)c1ccccc1 (stereo unspecified),IC50,Plasmodium falciparum [9],5.3 µg/mL
C[C@@H]1CC[C@H]2[C@@H](C)C(Nc3ccc(C(=O)O)cc3)O[C@@H]3O[C@]4(C)CC[C@@H]1[C@]32OO4 (stereo partly specified),SD50,Plasmodium berghei [10],1.36 mg/kg/day
C[C@H]1[C@@H](OCc2ccc(C(=O)N(CCCNc3ccnc4cc(Cl)ccc34)CC(=O)NC3CCCCC3)cc2)O[C@@H]2O[C@]3(C)CC[C@H]4[C@H](C)CC[C@@H]1[C@@]24OO3,pIC50,Plasmodium falciparum [11],7.68
same,pIC50,Plasmodium falciparum [12],7.46
CN1CCN(C2CCN(C(=O)CC3CCC4(CC3)OOC3(OO4)C4CC5CC(C4)CC3C5)CC2)CC1 (stereo unspecified),pIC50,Plasmodium falciparum [13],9.10
same,ED90,"Plasmodium berghei [14]; Plasmodium berghei, ANKA",4.18 mg/kg
same,ED50,"Plasmodium berghei [14]; Plasmodium berghei, ANKA, read-out: ED50",1.33 mg/kg
CC1(OCc2ccccc2)CCC2CC1OO[C@]2(/C=C\c1ccc(Cl)cc1)c1ccccc1 (stereo partly specified),pIC50,Plasmodium falciparum [3],7.64
C[C@@H]1CC[C@H]2[C@@H](C)C(Nc3cccc(Cl)c3)O[C@@H]3O[C@]4(C)CC[C@@H]1[C@]32OO4 (stereo partly specified),SD50,Plasmodium berghei [10],1.62 mg/kg/day
CC1(OCc2ccccc2)CCC2CC1OO[C@]2(/C=C\c1ccc(F)cc1)c1ccccc1 (stereo partly specified),pIC50,Plasmodium falciparum [3],7.54
C[C@H]1[C@H](N2CCN(C(=O)c3ccc(C(F)(F)F)cc3)CC2)O[C@@H]2O[C@]3(C)CC[C@H]4[C@H](C)CC[C@@H]1[C@@]24OO3,pIC50,Plasmodium falciparum [15],7.88
same,pIC50,Plasmodium falciparum [11],8.46
same,pIC50,Plasmodium falciparum [16],9.31
CCO[C@H]1O[C@@H]2O[C@]3(C)CC[C@H]4[C@H](C)CC[C@@H]([C@H]1C)[C@@]24OO3,ED90,Plasmodium berghei [17],6 mg/kg
CO[C@H]1O[C@@H]2O[C@@]3(C)CC[C@H]4[C@H](C)CC[C@@H]([C@H]1C)[C@@]24OO3,pIC50,Plasmodium falciparum [18],8.15
same,pIC50,Plasmodium falciparum [11],8.05
same,ED50,Plasmodium berghei [8],6 mg/kg
same,ED50,Plasmodium berghei [14],10.57 mg/kg
same,pIC50,Plasmodium falciparum [16],8.70
C[C@H]1[C@H](N2CCN(C(=O)Nc3ccccc3)CC2)O[C@@H]2O[C@]3(C)CC[C@H]4[C@H](C)CC[C@@H]1[C@@]24OO3,pIC50,Plasmodium falciparum [15],8.12
same,pIC50,Plasmodium falciparum [16],8.89
CC(=O)/C=C/N1C(=O)[C@H](C)[C@@H]2CC[C@@H](C)[C@@H]3CC[C@]4(C)OO[C@]32[C@H]1O4,Ratio IC50,Plasmodium falciparum [1],2.54
same,Ratio IC50,Plasmodium falciparum [2],1.25
FC1(F)C2CC3CC1CC(C2)C31OO[C@]2(CC[C@@H](c3ccc(OCCN4CCOCC4)cc3)CC2)O1 (stereo partly specified),Activity,Plasmodium falciparum [5],<0.01%
CCN(Cc1cc(C2(C)OOC(c3c[nH]c4ccccc34)OO2)ccc1O)c1ccccc1 (stereo unspecified),IC50,Plasmodium falciparum [9],8.19 µg/mL
C[C@H]1[C@@H](OCc2ccc(CN3CCCC3)cc2)O[C@@H]2O[C@]3(C)CC[C@H]4[C@H](C)CC[C@@H]1[C@@]24OO3,pIC50,Plasmodium falciparum [19],8.64
same,pIC50,Plasmodium falciparum [3],8.64
CC1(c2ccccc2)OOC(c2ccccc2)(c2ccccc2)OO1,IC50,Plasmodium falciparum [9],3.91 µg/mL
C[C@H]1[C@@H](CCOCc2cccc(F)c2)O[C@@H]2O[C@]3(C)CC[C@H]4[C@H](C)CC[C@@H]1[C@@]24OO3,pIC50,Plasmodium falciparum [19],9.46
same,ED50,Plasmodium berghei [8],5.08 mg/kg
same,pIC50,Plasmodium falciparum [3],8.42
Cc1ccc([C@@H]2O[C@@H]3O[C@]4(C)CC[C@H]5[C@H](C)CC[C@@H]([C@H]2C)[C@@]35OO4)o1,ED50,Plasmodium berghei [20],0.9 mg/kg
CC1(C)CC(O)(COc2ccc([C@H]3CC[C@]4(CC3)OOC3(O4)C4CC5CC(C4)CC3C5)cc2)CC(C)(C)N1 (stereo partly specified),Activity,Plasmodium falciparum [5],<0.01%
